Assay results from patent publication US4950662A, “2-oxa-isocephem compounds, compositions containing the same and processes for preparing the same” (Otsuka Pharmaceutical Co., Ltd., priority 1987, dated 1990).
In brackets after ≈: the same amount, converted by molar mass. Where two headings read alike, the source gives them in different places.

How the values were obtained:
M. morganii IIDKono = assay: MIC by agar plate dilution method, M. morganii IIDKono; assay type: cell-based; details: Morganella morganii
Protocol: (§1) In order to investigate the in vitro activity of the under-mentioned compounds against various bacteria, the minimal inhibitory concentration (MIC) values were determined by the agar plate dilution method [see Chemotherapy, 22, 1123-1128 (1974)].
(§2) Each test inoculum was adjusted to I x 10^6 cells/ml (O.D., 600m : 0.07-0.16).

E. coli No. 29 = assay: MIC by agar plate dilution method, E. coli No. 29; assay type: cell-based; details: Escherichia coli, inoculum 1 x 10^6 cells/ml
Protocol: as §1, §2

S. marcescens ATCC-13880 = assay: MIC by agar plate dilution method, S. marcescens ATCC-13880; assay type: cell-based; details: Serratia marcescens, ATCC13880, inoculum 1 x 10^6 cells/ml
Protocol: as §1, §2

S. aureus FDA-209-p = assay: MIC by agar plate dilution method, S. aureus FDA-209-p; assay type: cell-based, Staphyloccocus aureus; details: Staphylococcus aureus, FDA209, inoculum 1 x 10^6 cells/ml
Protocol: as §1, §2

P. mirabilis ATCC-29906 = assay: MIC by agar plate dilution method, P. mirabilis ATCC-29906; assay type: cell-based; details: Proteus mirabilis, ATCC29906, inoculum 1 x 10^6 cells/ml
Protocol: as §1, §2

K. pneumoniae NCTC-9632 = assay: MIC by agar plate dilution method, K. pneumoniae NCTC-9632; assay type: cell-based; details: Klebsiella pneumoniae, NCTC9632
Protocol: as §1, §2

E. coli NIHJ = assay: MIC by agar plate dilution method, E. coli NIHJ; assay type: cell-based; details: Escherichia coli, inoculum 1 x 10^6 cells/ml
Protocol: as §1, §2

S. marcescens IFO-12648 = assay: MIC by agar plate dilution method, S. marcescens IFO-12648; assay type: cell-based; details: Serratia marcescens, IFO12648, inoculum 1 x 10^6 cells/ml
Protocol: as §1, §2

M. morganii ATCC-25830 = assay: MIC by agar plate dilution method, M. morganii ATCC-25830; assay type: cell-based; details: Morganella morganii, ATCC25830
Protocol: as §1, §2

P. aeruginosa NCTC-10490 = assay: MIC by agar plate dilution method, P. aeruginosa NCTC-10490; assay type: cell-based; details: Pseudomonas aeruginosa, NCTC10490, inoculum 1 x 10^6 cells/ml
Protocol: as §1, §2

P. mirabilis 1287 = assay: MIC by agar plate dilution method, P. mirabilis 1287; assay type: cell-based; details: Proteus mirabilis, inoculum 1 x 10^6 cells/ml
Protocol: as §1, §2

[1] = M. morganii IIDKono, inoculum 1 x 10^6 cells/ml, read-out: MIC
[2] = K. pneumoniae NCTC-9632, inoculum 1 x 10^6 cells/ml, read-out: MIC
[3] = M. morganii ATCC-25830, inoculum 1 x 10^6 cells/ml, read-out: MIC

| SMILES | MIC (M. morganii IIDKono; [1]) [µg/mL] | MIC (E. coli No. 29) [µg/mL] | MIC (S. marcescens ATCC-13880) [µg/mL] | MIC (S. aureus FDA-209-p) [µg/mL] | MIC (P. mirabilis ATCC-29906) [µg/mL] | MIC (K. pneumoniae NCTC-9632; [2]) [µg/mL] | MIC (E. coli NIHJ) [µg/mL] | MIC (S. marcescens IFO-12648) [µg/mL] | MIC (P. aeruginosa NCTC-10490) [µg/mL] | MIC (P. mirabilis 1287) [µg/mL] | MIC (M. morganii ATCC-25830; [3]) [µg/mL] | MIC (K. pneumoniae NCTC-9632) [µg/mL] | MIC (M. morganii IIDKono) [µg/mL] | MIC (M. morganii ATCC-25830) [µg/mL] |
| --- | --- | --- | --- | --- | --- | --- | --- | --- | --- | --- | --- | --- | --- | --- |
| CO/N=C(\C(=O)N[C@@H]1C(=O)N2C(C(=O)[O-])=C(C[N+]3(C)CCCC3)OC[C@H]12)c1csc(N)n1 [No. 2, (6S,7S)-7-[2-(2-aminothiazol-4-yl)-2-methoxyiminoacetamide]-3-(I-methyl-1-pyrrolidinio)methyl-Δ^3-0-2-isocephem-4-carboxylate (syn isomer)] | 0.1 (≈ 0.215 µM) | 0.05 (≈ 0.108 µM) | 0.1 (≈ 0.215 µM) | 0.39 (≈ 0.84 µM) | 0.1 (≈ 0.215 µM) | – | 0.05 (≈ 0.108 µM) | – | – | – | – | 0.05 (≈ 0.108 µM) | – | – |
| CO/N=C(\C(=O)N[C@@H]1C(=O)N2C(C(=O)O)=C(CN3CCc4ccccc4C3)OC[C@H]12)c1csc(N)n1 [No. 3, (6S,7S}-7-[2-(2-aminothiazol-4-yl)-2-methoxyiminoacetamide]-3-(1,2,3,4-tetrahydroisoquinolyn-2-yl}methyl-Δ^3-0-2-isocephem-4-carboxylic acid (syn isomer)] | 0.2 (≈ 0.39 µM) | 0.05 (≈ 0.0976 µM) | 0.39 (≈ 0.761 µM) | 0.39 (≈ 0.761 µM) | 0.1 (≈ 0.195 µM) | 0.1 (≈ 0.195 µM) | 0.05 (≈ 0.0976 µM) | – | – | – | – | – | – | – |
| CO/N=C(\C(=O)N[C@@H]1C(=O)N2C(C(=O)[O-])=C(C[n+]3ccccc3)OC[C@H]12)c1csc(N)n1 [No. 5, (6S,7S)-7-[2-(2-aminothiazol-4-yl)-2-methoxyiminoacetamide]-3-[(1-pyridinio)methyl]-Δ^3-0-2-isocephem-4-carboxylate (syn isomer)] | – | 0.05 (≈ 0.109 µM) | 0.1 (≈ 0.218 µM) | 0.39 (≈ 0.851 µM) | 0.1 (≈ 0.218 µM) | – | 0.05 (≈ 0.109 µM) | – | – | – | – | 0.05 (≈ 0.109 µM) | 0.05 (≈ 0.109 µM) | – |
| CO/N=C(\C(=O)N[C@@H]1C(=O)N2C(C(=O)[O-])=C(C[n+]3ccc(SCC#N)cc3)OC[C@H]12)c1csc(N)n1 [No. 6, (6S,7S)-7-[2-(2-aminothiazol-4-yl}-2-methoxyiminoaoetamide]-3-[(4-cyanomethyIthio-1-pyridinio)methyl]-Δ^3-0-2-isocephem-4-carboxylate (syn isomer)] | ≤ 0.025 | ≤ 0.025 | 0.05 (≈ 0.0944 µM) | 0.78 (≈ 1.47 µM) | ≤ 0.025 | ≤ 0.025 | ≤ 0.025 | – | – | – | – | – | – | – |
| CO/N=C(\C(=O)N[C@@H]1C(=O)N2C(C(=O)[O-])=C(C[n+]3ccc(-c4cc[nH]n4)cc3)OC[C@H]12)c1csc(N)n1 [No. 7, (6S,7S}-7-[2-[2-aminothiazol-4-Yl}-2-methoxyiminoacetamide]-3-[[4-(3-pyrazolyl)-1-pyridinio]methyl]-Δ^3-0-2-isocephem-4-carboxylate (syn isomer)] | ≤ 0.025 | ≤ 0.025 | 0.1 (≈ 0.191 µM) | 0.2 (≈ 0.381 µM) | ≤ 0.025 | ≤ 0.025 | ≤ 0.025 | – | – | – | – | – | – | – |
| CC(C)O/N=C(\C(=O)N[C@@H]1C(=O)N2C(C(=O)[O-])=C(C[n+]3ccc(-c4cnco4)cc3)OC[C@H]12)c1csc(N)n1 [No. 8, (6S,7S)-7-[2-(2-aminothiazol-4-yl}-2-isopropyloxyiminoacetamide]-3-[[4-(5-oxazolyl)-1-pyridinio]methyl]-Δ^3-0-2-isocephem-4-carboxylate (syn isomer)] | – | ≤ 0.05 | – | 0.2 (≈ 0.361 µM) | – | ≤ 0.025 | 0.05 (≈ 0.0903 µM) | 0.2 (≈ 0.361 µM) | 25 (≈ 45.2 µM) | 0.05 (≈ 0.0903 µM) | – | – | – | 0.05 (≈ 0.0903 µM) |
| C=CCO/N=C(\C(=O)N[C@@H]1C(=O)N2C(C(=O)[O-])=C(C[n+]3ccc(-c4cnco4)cc3)OC[C@H]12)c1csc(N)n1 [No. 13, (6S,7S}-7-[2-(2-aminothiazol-4-Yl)-2-allyloxyiminoacetamide]-3-[[4-[5-oxazolyl)-1-pyridinio]methyl]-Δ^3-0-2-isocephem-4-carboxylate (syn isomer)] | – | 0.05 (≈ 0.0907 µM) | – | 0.1 (≈ 0.181 µM) | – | ≤ 0.025 | 0.05 (≈ 0.0907 µM) | 0.2 (≈ 0.363 µM) | 12.5 (≈ 22.7 µM) | 0.1 (≈ 0.181 µM) | 0.2 (≈ 0.363 µM) | – | – | – |

Now from value to molecule, other results behind:

| MIC (M. morganii IIDKono; [1]) [µg/mL] | MIC (E. coli No. 29) [µg/mL] | MIC (S. marcescens ATCC-13880) [µg/mL] | MIC (S. aureus FDA-209-p) [µg/mL] | MIC (P. mirabilis ATCC-29906) [µg/mL] | MIC (K. pneumoniae NCTC-9632; [2]) [µg/mL] | MIC (E. coli NIHJ) [µg/mL] | MIC (S. marcescens IFO-12648) [µg/mL] | MIC (P. aeruginosa NCTC-10490) [µg/mL] | MIC (P. mirabilis 1287) [µg/mL] | MIC (M. morganii ATCC-25830; [3]) [µg/mL] | SMILES | MIC (K. pneumoniae NCTC-9632) [µg/mL] | MIC (M. morganii IIDKono) [µg/mL] | MIC (M. morganii ATCC-25830) [µg/mL] |
| --- | --- | --- | --- | --- | --- | --- | --- | --- | --- | --- | --- | --- | --- | --- |
| 0.2 (≈ 0.444 µM) | 0.1 (≈ 0.222 µM) | 0.39 (≈ 0.866 µM) | 1.56 (≈ 3.46 µM) | 0.2 (≈ 0.444 µM) | 0.2 (≈ 0.444 µM) | 0.1 (≈ 0.222 µM) | – | – | – | – | CO/N=C(\C(=O)N[C@@H]1C(=O)N2C(C(=O)O)=C(CN3CCCC3)OC[C@H]12)c1csc(N)n1 [No. 1, (6S,7S)-7-[2-(2-aminothiazol-4-yI)-2-methoxyiminoacetamide]-3-(1-pyrolidinyl)methyl-Δ^3-0-2-isocephem-4-carboxylic acid (syn isomer)] | – | – | – |
| 0.1 (≈ 0.19 µM) | 0.05 (≈ 0.095 µM) | 0.2 (≈ 0.38 µM) | 0.78 (≈ 1.48 µM) | 0.2 (≈ 0.38 µM) | 0.2 (≈ 0.38 µM) | 0.1 (≈ 0.19 µM) | – | – | – | – | CO/N=C(\C(=O)N[C@@H]1C(=O)N2C(C(=O)[O-])=C(C[N+]3(C)CCc4ccccc4C3)OC[C@H]12)c1csc(N)n1 (stereo partly drawn) [No. 4, (6S,7S)-7-[2-(2-aminothiazol-4-Yl)-2-methoxyiminoacetamide]3-(2-methyl-2-1,2,3,4-tetrahydroisoquinoline-2-yl)methyl-Δ^3-0-2-isocephem-4-carboxylate (syn isomer)] | – | – | – |
| – | 0.05 (≈ 0.0863 µM) | – | 0.1 (≈ 0.173 µM) | – | ≤ 0.025 | 0.1 (≈ 0.173 µM) | 0.2 (≈ 0.345 µM) | 12.5 (≈ 21.6 µM) | 0.05 (≈ 0.0863 µM) | 0.1 (≈ 0.173 µM) | Nc1nc(/C(=N/OC2CCCC2)C(=O)N[C@@H]2C(=O)N3C(C(=O)[O-])=C(C[n+]4ccc(-c5cnco5)cc4)OC[C@H]23)cs1 [No. 9, (6S,7S}-7-[2-(2-aminothiazol-4-yl)-2-cyclopentyloxyiminoacetamide]-3-[[4-(5-oxazolyl)-1-pyridinio]methyl]-Δ^3-0-2-isocephem-4carboxylate (syn isomer)] | – | – | – |
| – | 0.1 (≈ 0.203 µM) | – | 0.2 (≈ 0.406 µM) | – | 0.05 (≈ 0.102 µM) | 0.1 (≈ 0.203 µM) | 0.39 (≈ 0.792 µM) | 12.5 (≈ 25.4 µM) | 0.1 (≈ 0.203 µM) | 0.1 (≈ 0.203 µM) | CC(C)O/N=C(\C(=O)N[C@@H]1C(=O)N2C(C(=O)[O-])=C(C[N+]3(C)CCCC3)OC[C@H]12)c1csc(N)n1 [No. 10, (6S,7S)-7-[2-(2-aminothiazol-4-yl)-2-(3-isopropyloxyiminoacetamide]-3-(1-methyl-1pyrrolidinio)methyl-^66 ^3-0-2-isocephem-4-carboxylate (syn isomer)] | – | – | – |
| – | 0.1 (≈ 0.193 µM) | – | 0.2 (≈ 0.386 µM) | – | 0.1 (≈ 0.193 µM) | 0.1 (≈ 0.193 µM) | 0.39 (≈ 0.752 µM) | 12.5 (≈ 24.1 µM) | 0.2 (≈ 0.386 µM) | 0.2 (≈ 0.386 µM) | C[N+]1(CC2=C(C(=O)[O-])N3C(=O)[C@@H](NC(=O)/C(=N\OC4CCCC4)c4csc(N)n4)[C@H]3CO2)CCCC1 [No. 11, (6S,7S)-7-[2-(2-aminothiazol-4-yl)-2-cyclopentyloxyiminoacetamide]-3-(I-methyl-1-pyrrolidinio]methyl-Δ^3-0-2-isocephem-4-carboxylate (syn isomer)] | – | – | – |
| – | ≤ 0.05 | – | 0.1 (≈ 0.19 µM) | – | ≤ 0.025 | 0.05 (≈ 0.095 µM) | 0.39 (≈ 0.741 µM) | 25 (≈ 47.5 µM) | 0.05 (≈ 0.095 µM) | 0.2 (≈ 0.38 µM) | CC(C)O/N=C(\C(=O)N[C@@H]1C(=O)N2C(C(=O)[O-])=C(C[n+]3cccc4c3CCC4)OC[C@H]12)c1csc(N)n1 [No. 12, (6S,7S}-7-[2-(2-amino&hiazol-4-Yl}-2-isopropyloxyiminoacetamide]-3-[(6,7-dihydro-5H-1-pyridinio)]methyl]-Δ^3-0-2-isocephem-4-carboxylate (syn isomer)] | – | – | – |
